# Data from US11911386B2, “Methods of treating B-cell proliferative disorder” (BeiGene Switzerland GmbH, priority 2022, dated 2024).
# Tests used:
# CYP3A = settings: coadministration of rifabutin with midazolam; cited from earlier work
# [1] = Phase 1 DDI study: treatment-emergent adverse events; format: in vivo, human; settings: N = 13
# Protocol: Safety was assessed by monitoring and recording of adverse events (AEs), serious adverse events (SAEs), clinical laboratory tests, physical examinations, and vital signs. […] A TEAE was defined as an AE that started during or after the first dose or started before the first dose and increased in severity after the first dose. AEs were classified based on MedDRA Version 24.0.
# Safety and tolerability were assessed, when applicable, by incidence, severity, change from baseline values, and abnormal values for all relevant parameters such as AEs, laboratory parameters, vital signs, and physical examination.
# [2] = cited from earlier work
# [3] = cited from earlier work; remark: listed apart in the source
# panel of 370 kinases = assay: Kinome profiling at 100xIC50 (BTK) concentrations; format: biochemical; settings: 100×IC50 (BTK) concentration
# [4] = RESONATE / RESONATE2 trials: ibrutinib effect (non-inferiority margin derivation); format: in vivo, human
# [5] = phase 3, relapsed/refractory CLL
SMILES,Reduction in midazolam exposure (CYP3A),Chromaturia TEAE [1],Overall TEAEs [1],Renal and urinary disorders TEAE [1],Decrease of systemic levels after multiple doses (auto-induction) ([2]; in vivo) [%],Mean t1/2 (standard deviation) ([2]; single oral dose of 300 mg),Tmax ([2]; single oral dose of 300 mg) [h],"Arthralgia, any grade [3, 5] [%]","Atrial fibrillation, any grade [3, 5] [%]","Cough [3, 5] [%]","Fatigue grade ≥3 [3, 5] [%]","Headaches [3, 5] [%]","Hypertension, any grade [3, 5] [%]","Infections grade ≥3 [3, 5] [%]",Off-target kinases inhibited (panel of 370 kinases) [kinases],"AEs leading to treatment discontinuation ([3]; long-term follow-up, 132 patients) [%]","Pooled PFS HR, fixed-effect meta-analysis [4]"
CO[C@H]1/C=C/O[C@@]2(C)Oc3c(C)c(O)c4c(c3C2=O)C2=NC3(CCN(CC(C)C)CC3)NC2=C(NC(=O)/C(C)=C\C=C\[C@H](C)[C@H](O)[C@@H](C)[C@@H](O)[C@@H](C)[C@H](OC(C)=O)[C@@H]1C)C4=O [rifabutin],≈ 3.2 fold,6 (46.2) n (%),6 (46.2) n (%),6 (46.2) n (%),38,"45 (standard deviation, 17) hours",2 to 4,–,–,–,–,–,–,–,–,–,–
CC#CC(=O)N1CCC[C@H]1c1nc(-c2ccc(C(=O)Nc3ccccn3)cc2)c2c(N)nccn12 [acalabrutinib],–,–,–,–,–,–,–,15.8,9.0,28.9,3.4,34.6,8.6,30.8,15,–,–
"C=CC(=O)N1CCC[C@@H](n2nc(-c3ccc(Oc4ccccc4)cc3)c3c(N)ncnc32)C1 [ibrutinib, 1-[(3R)-3-[4-amino-3-(4-phenoxyphenyl)-1H-pyrazolo[3,4-d]pyrimidin-1-yl]-1-piperidinyl]-2-propen-1-one]",–,–,–,–,–,–,–,–,–,–,–,–,–,–,17,13,0.120
